Consider 23 compounds from ChEMBL document CHEMBL4350994, “Andrographolide: A natural product template for the generation of structurally and biologically diverse diterpenes” (Eur J Med Chem, 2019).

Each structure is given as a SMILES string.

Test [1] is described as follows: Growth inhibition of human OVCAR1 cells. Type of test: functional.
Another test relates to DU-145. The test can be described thus: Growth inhibition of human DU145 cells. It is filed as functional.
The target of test [2] is T1, Bile acid receptor (Homo sapiens, UniProt Q96RI1).
T1 sequence (Q96RI1 whole entry): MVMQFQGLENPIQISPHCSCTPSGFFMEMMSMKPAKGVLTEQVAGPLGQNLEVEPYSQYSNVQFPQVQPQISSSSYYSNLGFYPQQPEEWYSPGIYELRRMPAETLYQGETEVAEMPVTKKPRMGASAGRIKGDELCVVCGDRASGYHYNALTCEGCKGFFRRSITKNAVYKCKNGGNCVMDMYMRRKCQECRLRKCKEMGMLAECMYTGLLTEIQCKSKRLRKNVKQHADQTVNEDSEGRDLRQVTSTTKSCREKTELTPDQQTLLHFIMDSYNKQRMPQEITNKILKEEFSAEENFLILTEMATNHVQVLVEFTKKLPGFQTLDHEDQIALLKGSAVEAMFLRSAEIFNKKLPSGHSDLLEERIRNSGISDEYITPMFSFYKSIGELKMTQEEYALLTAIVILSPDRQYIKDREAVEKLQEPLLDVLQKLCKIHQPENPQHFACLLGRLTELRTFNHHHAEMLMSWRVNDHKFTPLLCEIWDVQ
Kind of test: Antagonist activity at FXR (unknown origin).

The subject of a further test is NCI/ADR-RES. Kind of test: Growth inhibition of human MCF7/ADR cells. Type of test: functional.
A further test deals with U-251. The test can be described thus: Growth inhibition of human U251 cells. Type of test: functional.
Another test concerns MCF7. The test can be described thus: Growth inhibition of human MCF7 cells. Type of test: functional.
The next test deals with SK-OV-3. The test can be described thus: Growth inhibition of human SKOV3 cells. It is filed as functional.
In a further test the test system is A498. The test can be described thus: Growth inhibition of human A498 cells. It is filed as functional.
A further test has as its system SW-620. Kind of test: Growth inhibition of human SW620 cells. Type of test: functional.
The test system of the next test is Rattus norvegicus. Kind of test: Hypoglycemic activity in diabetic rat assessed as decrease in blood glucose level at 150 mg/kg after 24 hrs relative to control. It is filed as functional. Also on record: scale not given: the % may be the effect or the level left.
Test [3] has as its target T1, Bile acid receptor. The test can be described thus: Antagonist activity at Gal4 DBD-fused human FXR LBD expressed in human HepG2 cells after 8 hrs by luciferase reporter gene assay. Type of test: cell-based. For orientation: Reporter assays use an easily measured gene product as a stand-in for the process of interest.
Test [4] relates to Mus musculus. The test can be described thus: Hypoglycemic activity in db/db mouse assessed as decrease in blood glucose level at 100 mg/kg administered daily for 6 days relative to control. Also on record: scale not given: the % may be the effect or the level left. It is filed as functional.
Test [5] deals with Mus musculus. Kind of test: Decrease in plasma triglycerides level in db/db mouse at 100 mg/kg administered daily for 6 days relative to control. It is filed as functional. Also on record: scale not given: the % may be the effect or the level left.
Test [6] in a line: Selectivity index, ratio of CC50 for MDCK cells to EC50 for H9N2 subtype.
A further test concerns H5N1 subtype. The test can be described thus: Antiviral activity against H5N1 subtype infected in MDCK cells after 2 to 3 days. The following applies: Influenza A virus. Type of test: functional, organism-based.
A short description of test [7]: Selectivity index, ratio of CC50 for MDCK cells to EC50 for H5N1 subtype.
Test [8] can be described thus: Antiviral activity against H9N2 subtype infected in MDCK cells after 2 to 3 days. Type of test: functional, cell-based. The following applies: Influenza A virus.
The nature of test [9]: Selectivity index, ratio of CC50 for MDCK cells to EC50 for H1N1 subtype.
Test [10] in a line: Antiviral activity H1N1 subtype infected in MDCK cells after 2 to 3 days. It is filed as functional, cell-based. The following applies: Influenza A virus.
Test [11] is described as follows: Cytotoxicity against human KKU-M213 cells assessed as reduction in cell viability after 24 hrs by MTT assay. Type of test: functional, cell-based. The following applies: KKU-M213, 24 h. A general note: Formazan colour is commonly taken as a measure of viable cells.

In the case of `C=C1CC[C@@H]2[C@]3(C)COC(C)(c4ccccc4)O[C@@H]3CC[C@@]2(C)[C@@H]1CC(C1=CCOC1=O)N1CCCC1C(=O)OC` (some centres not stated), the GI50 (in general, the concentration giving 50% growth inhibition) in test [1] stood at 1000 nM.

In the case of `C=C1CC[C@@H]2[C@]3(C)COC(C)(c4ccccc4)O[C@@H]3CC[C@@]2(C)[C@@H]1CC(NC(Cc1ccccc1)C(=O)OC)C1=CCOC1=O` (some centres not stated), it took 1400 nM to inhibit growth in test [1] by half (GI50).

Regarding `C=C1CC[C@@H]2[C@](C)(CO)[C@H](O)CC[C@@]2(C)[C@@H]1C/C=C/c1ccc(F)cc1`, the GI50 in the test on DU-145 is 2000 to 27000 nM.

`C=C1CC[C@@H]2[C@]3(C)COC(C)(C)O[C@@H]3CC[C@@]2(C)[C@@H]1C/C=C1/C(=O)OC[C@@H]1Oc1ccc([N+](=O)[O-])cc1OC`: the IC50 (usually the concentration that gives 50% inhibition) on Bile acid receptor [2] fell in the range of 550 to 2000 nM.

Take `C=C1CC[C@@H]2[C@](C)(COC(C)=O)[C@H](OC(C)=O)CC[C@@]2(C)[C@@H]1CC(C1=CCOC1=O)n1cc(I)c(=O)[nH]c1=O` (some centres not stated): the GI50 (in the test with NCI/ADR-RES; in test [1]; in the test with U-251; in the test with MCF7) was 2000 nM in each case.

With `C=C1CC[C@@H]2[C@](C)(COC(C)=O)[C@H](OC(C)=O)CC[C@@]2(C)[C@@H]1C/C=C1/C(=O)OC[C@H]1OC(=O)CNC(C)=O`, the GI50 in the test with U-251 amounted to 1500 nM.

In the case of `CC(=O)OC[C@@]1(C)[C@H]2CC[C@@]3(CO3)[C@@H](C/C=C3/C(=O)OC[C@H]3OC(C)=O)[C@]2(C)CC[C@H]1OC(C)=O`, the GI50 is 250 to 5000 nM with NCI/ADR-RES; 0.25 to 5 µM with SK-OV-3; 250 to 5000 nM with DU-145; 0.25 to 5 µM in the test with A498; 0.25 to 5 µM in the test with SW-620; 250 to 5000 nM in the test on U-251.

Consider `C=C1CC[C@@H]2[C@](C)(CO)[C@H](O)CC[C@@]2(C)[C@@H]1C/C=C1/C(=O)OC[C@H]1OC(=O)c1ccccc1`, for which the 50% growth inhibitory concentration (GI50) in the test on U-251 was determined as 1500 nM.

In the case of `COc1ccc(Cl)cc1C(=O)NCCc1ccc(S(=O)(=O)NC(=O)NC2CCCCC2)cc1` [GLYBURIDE], in the test with Rattus norvegicus, the Activity worked out at 62.02%.

For `C=C1CC[C@@H]2[C@](C)(CO)[C@H](O)CC[C@@]2(C)[C@@H]1C/C=C1/C(=O)OC[C@H]1O` [ANDROGRAPHOLIDE], the GI50 with NCI/ADR-RES lay within 3000 to 20000 nM; in the test on SK-OV-3, 3 to 20 µM; in test [1], 3000 to 20000 nM; with DU-145, 3000 to 20000 nM; in the test on A498 it was 3 to 20 µM; with SW-620, 3 to 20 µM. Besides, the GI50 in the test with U-251 and in the test with MCF7 was 3000 to 20000 nM in each case. Moreover, the figures for the concentration for half-maximal inhibition (IC50) against Bile acid receptor [3] and against Bile acid receptor [2] were 9.7 µM and 9700 nM, respectively. In addition, the figures for the Activity with Mus musculus [4] and in the test on Mus musculus [5] were 64% and 54%, respectively.

With `C=C1CC[C@@H]2[C@](C)(CO)[C@H](O)CC[C@@]2(C)[C@@H]1C/C=C1/C(=O)OC[C@H]1OC(=O)CCCCC1CCSS1` (some centres not stated), the “Selectivity Index” value in [6], in test [7] and in test [9] was 51 - 109 each time. Moreover, the EC50 (with H5N1 subtype; in test [8]; in test [10]) was 7.2 to 15.2 µM each time.

Turning to `CCC(=O)OC[C@@]1(C)[C@H]2CC[C@@]3(CO3)[C@@H](C/C=C3/C(=O)OC[C@H]3OC(=O)/C=C/c3cccc(OC)c3)[C@]2(C)CC[C@H]1OC(=O)CC`, the GI50 in the test with NCI/ADR-RES fell in the range of 600 to 4800 nM; with SK-OV-3, 0.6 to 4.8 µM; with DU-145 it was 600 to 4800 nM; with A498 it was 0.6 to 4.8 µM; in the test on SW-620, 0.6 to 4.8 µM; in the test with U-251, 600 to 4800 nM.

Take `C=C1CC[C@@H]2[C@](C)(CO)[C@H](O)CC[C@@]2(C)[C@@H]1C/C=C1/C(=O)OC[C@H]1OC(=O)Nc1ccccc1`: in the test on NCI/ADR-RES, the GI50 amounted to 400 nM.

In the case of `C=C1CC[C@@H]2[C@](C)(CO)[C@H](O)CC[C@@]2(C)[C@@H]1C/C=C/c1cccc(Cl)c1`, in the test with DU-145, the GI50 was in the range of 2000 to 27000 nM.

In the test with DU-145, `C=C1CC[C@@H]2[C@](C)(CO)[C@H](O)CC[C@@]2(C)[C@@H]1C/C=C/c1ccccc1` returned a 50% growth inhibitory concentration (GI50) of 2000 to 27000 nM.

In the case of `CCC(=O)OC[C@@]1(C)[C@H]2CC[C@@]3(CO3)[C@@H](C/C=C3/C(=O)OC[C@H]3OC(=O)/C=C/c3ccccc3)[C@]2(C)CC[C@H]1OC(=O)CC`, the 50% growth inhibitory concentration (GI50) with NCI/ADR-RES fell in the range of 80 to 6000 nM; with SK-OV-3, 0.08 to 6 µM; in the test with DU-145, 80 to 6000 nM; in the test with A498 it was 0.08 to 6 µM; in the test on SW-620, 0.08 to 6 µM; in the test with U-251 it was 80 to 6000 nM.

As to `C[C@]1(CO)[C@H]2CC[C@@]3(CO3)[C@@H](C/C=C3/C(=O)OC[C@H]3OC(=O)/C=C/c3ccccc3)[C@]2(C)CC[C@H]1O`, the GI50 in the test with NCI/ADR-RES was in the range of 500 to 9000 nM; in the test on SK-OV-3, 0.5 to 9 µM; in the test on DU-145 it was 500 to 9000 nM; with A498 it was 0.5 to 9 µM; in the test on SW-620 it was 0.5 to 9 µM; with U-251, 500 to 9000 nM.

`CC(=O)OC[C@@]1(C)[C@H]2CC[C@@]3(CO3)[C@@H](CC(Sc3ccccc3)C3=CCOC3=O)[C@]2(C)CC[C@H]1OC(C)=O` (some centres not stated) had a GI50 in the test on DU-145 of 2000 nM.

`C=C1CC[C@@H]2[C@](C)(CO)[C@H](O)CC[C@@]2(C)[C@@H]1C/C=C1/C(=O)OC[C@@H]1Oc1ccccc1OC` showed an IC50 against Bile acid receptor [2] of 550 to 2000 nM.

Turning to `C=C1CC[C@@H]2[C@]3(C)COC(C)(C)O[C@@H]3CC[C@@]2(C)[C@@H]1Cc1cc(=O)[nH]c(N)n1`, in the test with DU-145, the GI50 is 200 nM.

As for `CC(C)(C)[Si](OC[C@@]1(C)[C@H]2CC[C@@]3(CO3)[C@@H](C/C=C3/C(=O)OC[C@H]3O)[C@]2(C)CC[C@H]1O)(c1ccccc1)c1ccccc1`, in test [11], the concentration for half-maximal inhibition (IC50) was found to be 8 µM.

The compound `C=C1CC[C@@H]2[C@](C)(CO)[C@H](O)CC[C@@]2(C)[C@@H]1C/C=C1/SC(=O)NC1=O` yielded a GI50 in the test on DU-145 of 780 nM.

Consider `CCC(=O)OC[C@@]1(C)[C@H]2CC[C@@]3(CO3)[C@@H](C/C=C3/C(=O)OC[C@H]3OC(=O)/C=C/c3ccc(OC)c(OC)c3)[C@]2(C)CC[C@H]1OC(=O)CC`, for which the GI50 lay within 400 to 7500 nM in the test on NCI/ADR-RES; 0.4 to 7.5 µM in the test on SK-OV-3; 400 to 7500 nM in the test on DU-145; 0.4 to 7.5 µM with A498; 0.4 to 7.5 µM in the test on SW-620; 400 to 7500 nM with U-251.
